According to US20240325330A1, “NEW METHOD TO TREAT ACIDOSIS RELATED DISEASES WITH ACETOACETATE” (INSTITUT NATIONAL DE LA SANTÉ ET DE LA RECHERCHE MÉDICALE, priority 2021, published 2024):

Assays:
[1] = system: day 3 LA-Mφ (human macrophages under lactic acidosis); assay: Survival of LA-Mφ with autophagy inhibitors; format: cell-based; details: added to day 3 LA-Mφ; data not shown
Experimental: (§1) Peripheral blood mononuclear cells (PBMC) were obtained from healthy human volunteers (Blood collection center, Angers, France; agreement ANG-2017-01) by standard density-gradient centrifugation on lymphocyte separation medium (Eurobio, Courtaboeuf, France). CD14+ monocytes were then isolated by positive magnetic cell-sorting (Miltenyi Biotec, Bergisch Gladbach, Germany). Monocytes (1×10^6 cells/mL) were cultured in complete medium (CM) consisting of RPMI 1640 (Lonza, Verviers, Belgium) supplemented with 10% fetal calf serum (FCS) (Eurobio), 2 mM L-glutamine, 1 mM sodium pyruvate, 0.1 mM non-essential amino acids, 10 mM HEPES, 100 U/mL penicillin and 100 μg/mL streptomycin (all from Lonza) in the presence of 50 ng/mL GM-CSF (R&D Systems, Minneapolis, MN).
(§2) Experiments were performed in the presence of 10 mM lactic acid (Sigma-Aldrich, St Louis, MO) resulting in a pHe of 6.5 to generate LA-Mφ (lactic acidosis conditioning), 12.35 mM HCl to reach a final pHe of 6.5 and to generate HCl-Mφ(acidosis conditioning), 10 mM sodium lactate (Sigma-Aldrich) to generate lactate-Mφ (lactosis conditioning, pH 7.3), in the absence or presence of 5 mM lithium acetoacetate (AcAc) (Sigma-Aldrich, St Louis, MO).

[2] = system: Mφ (human monocytes cultured with GM-CSF); assay: Toxicity of lactic acid for macrophages; format: cell-based; details: pH=6.5; data not shown
Experimental: as §1, §2

## CO/C1=C\C(C)=C\[C@@H](C)[C@@H](O)[C@@H](C)C/C(C)=C/C=C/[C@H](OC)[C@@H]([C@@H](C)[C@@H](O)[C@H](C)[C@@]2(O)C[C@@H](O)[C@H](C)[C@@H](C(C)C)O2)OC1=O [BafA1, bafilomycin A1]
[1]
  survival of LA-Mφ: significantly decreased their survival

## CC(O)C(=O)O (stereo not drawn) [LA, lactic acid]
[2]
  maximum non-toxic concentration for Mφ: 10 mM

## CC[C@@H](C(=O)[C@@H](C)[C@@H](O)[C@H](C)[C@@H]1O[C@@H]([C@@H](CC)C(=O)O)CC[C@@H]1C)[C@H]1O[C@]2(C=C[C@@H](O)[C@]3(CC[C@@](C)([C@H]4CC[C@](O)(CC)[C@H](C)O4)O3)O2)[C@H](C)C[C@@H]1C [salinomycin]
[1]
  survival of LA-Mφ: significantly decreased their survival
